Where two headings read alike, the source gives them in different places. Numbered stars: 1 amine (or outer) side, 2 acyl side, 3 side chain; on linkers, the order of the positions; unused ones are H or OH. Square brackets hold non-standard residues; d marks the D form. Side chains are listed from the residue outwards. Peptide text beside a SMILES is read from it. * marks the point of attachment. C20 diacid = O=C(O)CCCCCCCCCCCCCCCCCCC(=O)*; γGlu = O=C(O)[C@H](CCC(=O)[*:2])N[*:1]; AEEA = NCCOCCOCC(=O)O; Aib = CC(C)(N)C(=O)O
Assays:
[1] = Fibril formation of crude library peptides (Thioflavin T); type: physicochemical; set-up: key: average ThT fluorescence emission at 480 nm (ex 450 nm), raw units; settings: Physical stability of peptides
In short: (§1)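 Fibril formation is scored as average ThT fluorescence from duplicate samples monitored for 72 h at 40° C with shaking stress. Turbidity is the absorbance at 600 nm taken before heating. Peptide concentration was 267 μM at pH 4.0 or pH 7.0.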

SCTR = SCTR (Homo sapiens, UniProt P47872); assay: hSCTR potency, cAMP accumulation in CHO-K1 cells stably overexpressing hSCTR; type: cell-based; set-up: alternatively Euroscreen ES-712-AF; FAST-0161L; host or cells: CHO-K1
SCTR, sequence (P47872 23-440): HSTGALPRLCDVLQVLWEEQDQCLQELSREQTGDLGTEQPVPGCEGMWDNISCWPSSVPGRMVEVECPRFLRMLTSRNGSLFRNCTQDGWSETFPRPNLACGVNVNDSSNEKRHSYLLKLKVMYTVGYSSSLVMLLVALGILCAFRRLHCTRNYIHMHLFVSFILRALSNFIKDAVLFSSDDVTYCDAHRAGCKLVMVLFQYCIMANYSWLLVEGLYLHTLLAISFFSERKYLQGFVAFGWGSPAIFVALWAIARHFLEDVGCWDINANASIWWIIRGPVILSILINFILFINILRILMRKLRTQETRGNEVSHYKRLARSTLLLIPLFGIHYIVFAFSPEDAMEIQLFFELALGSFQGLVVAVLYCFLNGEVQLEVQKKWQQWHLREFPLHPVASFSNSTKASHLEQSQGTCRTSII
In short: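 In this Gs cAMP assay, stably transfected CHO-K1 hSCTR cells were stimulated at room temperature for 30 min in IBMX-containing buffer. Time-resolved FRET gave the signal. Replicates were increased when the top concentration changed or EC50 values differed 5-fold.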

GLP1R = GLP1R (Homo sapiens, UniProt P43220); assay: hGLP1R potency, cAMP accumulation in CHO-K1 cells stably overexpressing hGLP1R; type: cell-based; set-up: host or cells: CHO-K1; settings: for SCTR EC50/GLP1R EC50 ratio: selectivity for hGLP1R over hSCTR, cAMP accumulation in CHO-K1 cells
GLP1R, sequence (P43220 24-463): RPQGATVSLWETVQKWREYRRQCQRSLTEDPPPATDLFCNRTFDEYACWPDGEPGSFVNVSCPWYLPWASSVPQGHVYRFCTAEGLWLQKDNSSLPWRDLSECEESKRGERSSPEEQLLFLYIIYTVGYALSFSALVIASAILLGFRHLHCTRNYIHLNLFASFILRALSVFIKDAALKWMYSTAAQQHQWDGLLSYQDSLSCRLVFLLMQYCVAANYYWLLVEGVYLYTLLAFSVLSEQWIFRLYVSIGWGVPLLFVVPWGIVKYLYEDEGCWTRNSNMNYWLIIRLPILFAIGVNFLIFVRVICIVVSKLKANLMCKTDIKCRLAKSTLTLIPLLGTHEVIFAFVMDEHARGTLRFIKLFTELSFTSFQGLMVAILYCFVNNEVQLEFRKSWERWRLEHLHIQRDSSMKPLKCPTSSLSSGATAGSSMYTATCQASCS
In short: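 In the presence of 0.5 mM IBMX, compounds stimulated the cells for 30 minutes at room temperature. Accumulated cAMP was then detected by TR-FRET, with EC50 values fitted by variable-slope nonlinear regression.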

[2] = Turbidity of crude library peptides (absorbance at 600 nm); type: physicochemical; settings: Physical stability of peptides
In short: as §1

[3] = cAMP accumulation, CHO-K1 cells overexpressing hSCTR, read-out: hSCTR pEC50 (converted)
[4] = cAMP accumulation, CHO-K1 cells overexpressing hGLP1R, read-out: hGLP1R pEC50 (converted)

SMILES | Fibril formation [1] | EC50 (SCTR; [3]) | EC50 (GLP1R; [4]) | SCTR EC50/GLP1R EC50 ratio (GLP1R) | Turbidity (pH 7) [2] | EC50 (SCTR) | EC50 (GLP1R)
CC(C)C[C@H](NC(=O)[C@H](Cc1ccccc1)NC(=O)[C@H](CCCNC(=N)N)NC(=O)[C@H](CCC(N)=O)NC(=O)[C@H](CCC(N)=O)NC(=O)[C@H](C)NC(=O)[C@H](C)NC(=O)C(C)(C)NC(=O)[C@H](CCC(=O)O)NC(=O)[C@H](CCCCNC(=O)COCCOCCNC(=O)COCCOCCNC(=O)CC[C@H](NC(=O)CCCCCCCCCCCCCCCCCCC(=O)O)C(=O)O)NC(=O)[C@H](CC(C)C)NC(=O)[C@@H](NC(=O)[C@H](CO)NC(=O)[C@@H](NC(=O)[C@H](CC(=O)O)NC(=O)[C@H](CO)NC(=O)[C@@H](NC(=O)[C@H](Cc1ccccc1)NC(=O)[C@@H](NC(=O)CNC(=O)[C@H](CCC(=O)O)NC(=O)C(C)(C)NC(=O)[C@@H](N)Cc1c[nH]cn1)[C@@H](C)O)[C@@H](C)O)C(C)C)[C@@H](C)O)C(=O)N[C@@H](CCC(=O)O)C(=O)N[C@@H](Cc1c[nH]cn1)C(=O)N[C@@H](CC(C)C)C(=O)N[C@H](C(N)=O)C(C)C [compound 88] (H-H[Aib]EGTFTSDVSTLK([AEEA-AEEA-γGlu-C20 diacid])E[Aib]AAQQRFLEHLV-NH2) | 10893 | 158 nM | 0.00398 nM | 42658 | 0.08 |  | 
CC(C)C[C@H](NC(=O)[C@H](Cc1ccccc1)NC(=O)[C@H](CCCNC(=N)N)NC(=O)[C@H](CCC(N)=O)NC(=O)[C@@H](NC(=O)[C@H](C)NC(=O)[C@H](C)NC(=O)[C@@H](NC(=O)[C@H](CCC(=O)O)NC(=O)[C@H](CCCCNC(=O)COCCOCCNC(=O)COCCOCCNC(=O)CC[C@H](NC(=O)CCCCCCCCCCCCCCCCCCC(=O)O)C(=O)O)NC(=O)[C@H](CC(C)C)NC(=O)[C@@H](NC(=O)[C@H](CO)NC(=O)[C@@H](NC(=O)[C@H](CC(=O)O)NC(=O)[C@H](CO)NC(=O)[C@@H](NC(=O)[C@H](Cc1ccccc1)NC(=O)[C@@H](NC(=O)CNC(=O)[C@H](CCC(=O)O)NC(=O)C(C)(C)NC(=O)[C@@H](N)Cc1c[nH]cn1)[C@@H](C)O)[C@@H](C)O)C(C)C)[C@@H](C)O)[C@@H](C)O)[C@@H](C)O)C(=O)N[C@@H](CCC(=O)O)C(=O)N[C@@H](Cc1c[nH]cn1)C(=O)N[C@@H](CC(C)C)C(=O)N[C@H](C(N)=O)C(C)C [compound 93] (H-H[Aib]EGTFTSDVSTLK([AEEA-AEEA-γGlu-C20 diacid])ETAATQRFLEHLV-NH2) | 6728 |  |  | 36771 | 0.08 | 316 nM | 0.01 nM
CC(C)C[C@H](NC(=O)[C@H](Cc1ccccc1)NC(=O)[C@H](CCCNC(=N)N)NC(=O)[C@H](CCC(N)=O)NC(=O)[C@H](CCC(N)=O)NC(=O)[C@H](C)NC(=O)[C@H](C)NC(=O)C(C)(C)NC(=O)[C@H](CCC(=O)O)NC(=O)[C@H](CCCCNC(=O)COCCOCCNC(=O)COCCOCCNC(=O)CC[C@H](NC(=O)CCCCCCCCCCCCCCCCCCC(=O)O)C(=O)O)NC(=O)[C@H](CC(C)C)NC(=O)[C@H](Cc1ccc(O)cc1)NC(=O)[C@H](CO)NC(=O)[C@@H](NC(=O)[C@H](CC(=O)O)NC(=O)[C@H](CO)NC(=O)[C@@H](NC(=O)[C@H](Cc1ccccc1)NC(=O)[C@@H](NC(=O)CNC(=O)[C@H](CCC(=O)O)NC(=O)C(C)(C)NC(=O)[C@@H](N)Cc1c[nH]cn1)[C@@H](C)O)[C@@H](C)O)C(C)C)C(=O)N[C@@H](CCC(=O)O)C(=O)N[C@@H](Cc1c[nH]cn1)C(=O)N[C@@H](CC(C)C)C(=O)N[C@H](C(N)=O)C(C)C [compound 94] (H-H[Aib]EGTFTSDVSYLK([AEEA-AEEA-γGlu-C20 diacid])E[Aib]AAQQRFLEHLV-NH2) | 10901 | 1000 nM | 0.01 nM | 111764 | 0.08 |  | 

Second part, led by results:

Fibril formation [1] | EC50 (SCTR; [3]) | EC50 (GLP1R; [4]) | SCTR EC50/GLP1R EC50 ratio (GLP1R) | Turbidity (pH 7) [2] | SMILES | EC50 (SCTR) | EC50 (GLP1R)
14469 | 2000 nM | 0.02 nM | 81527 | 0.08 | CC(C)C[C@H](NC(=O)[C@H](Cc1ccccc1)NC(=O)[C@H](CCCNC(=N)N)NC(=O)[C@H](CCC(N)=O)NC(=O)[C@H](CCC(=O)O)NC(=O)[C@H](C)NC(=O)[C@H](C)NC(=O)[C@H](Cc1ccccc1)NC(=O)[C@H](CCC(=O)O)NC(=O)[C@H](CCCCNC(=O)COCCOCCNC(=O)COCCOCCNC(=O)CC[C@H](NC(=O)CCCCCCCCCCCCCCCCCCC(=O)O)C(=O)O)NC(=O)[C@H](CC(C)C)NC(=O)[C@@H](NC(=O)[C@H](CO)NC(=O)[C@@H](NC(=O)[C@H](CC(=O)O)NC(=O)[C@H](CO)NC(=O)[C@@H](NC(=O)[C@H](Cc1ccccc1)NC(=O)[C@@H](NC(=O)CNC(=O)[C@H](CCC(=O)O)NC(=O)C(C)(C)NC(=O)[C@@H](N)Cc1c[nH]cn1)[C@@H](C)O)[C@@H](C)O)C(C)C)[C@@H](C)O)C(=O)N[C@@H](CCC(=O)O)C(=O)N[C@@H](Cc1c[nH]cn1)C(=O)N[C@@H](CC(C)C)C(=O)N[C@H](C(N)=O)C(C)C [compound 89] (H-H[Aib]EGTFTSDVSTLK([AEEA-AEEA-γGlu-C20 diacid])EFAAEQRFLEHLV-NH2) |  | 
5668 | 1580 nM | 0.0316 nM | 51322 | 0.09 | CC(C)C[C@H](NC(=O)[C@H](Cc1ccccc1)NC(=O)[C@H](CCCNC(=N)N)NC(=O)[C@H](CCC(N)=O)NC(=O)[C@H](CCC(N)=O)NC(=O)[C@H](C)NC(=O)[C@H](C)NC(=O)[C@H](CCC(=O)O)NC(=O)[C@H](CCC(=O)O)NC(=O)[C@H](CCCCNC(=O)COCCOCCNC(=O)COCCOCCNC(=O)CC[C@H](NC(=O)CCCCCCCCCCCCCCCCCCC(=O)O)C(=O)O)NC(=O)[C@H](CC(C)C)NC(=O)[C@@H](NC(=O)[C@H](CO)NC(=O)[C@@H](NC(=O)[C@H](CC(=O)O)NC(=O)[C@H](CO)NC(=O)[C@@H](NC(=O)[C@H](Cc1ccccc1)NC(=O)[C@@H](NC(=O)CNC(=O)[C@H](CCC(=O)O)NC(=O)C(C)(C)NC(=O)[C@@H](N)Cc1c[nH]cn1)[C@@H](C)O)[C@@H](C)O)C(C)C)C(C)C)C(=O)N[C@@H](CCC(=O)O)C(=O)N[C@@H](Cc1c[nH]cn1)C(=O)N[C@@H](CC(C)C)C(=O)N[C@H](C(N)=O)C(C)C [compound 90] (H-H[Aib]EGTFTSDVSVLK([AEEA-AEEA-γGlu-C20 diacid])EEAAQQRFLEHLV-NH2) |  | 
260000 | 31600 nM | 0.316 nM | 101438 | 0.42 | CC(C)C[C@H](NC(=O)[C@H](Cc1ccccc1)NC(=O)[C@H](CCCNC(=N)N)NC(=O)[C@H](CCC(N)=O)NC(=O)[C@H](CO)NC(=O)[C@H](C)NC(=O)[C@H](C)NC(=O)[C@H](Cc1ccccc1)NC(=O)[C@H](CCC(=O)O)NC(=O)[C@H](CCCCNC(=O)COCCOCCNC(=O)COCCOCCNC(=O)CC[C@H](NC(=O)CCCCCCCCCCCCCCCCCCC(=O)O)C(=O)O)NC(=O)[C@H](CC(C)C)NC(=O)[C@H](Cc1ccccc1)NC(=O)[C@H](CO)NC(=O)[C@@H](NC(=O)[C@H](CC(=O)O)NC(=O)[C@H](CO)NC(=O)[C@@H](NC(=O)[C@H](Cc1ccccc1)NC(=O)[C@@H](NC(=O)CNC(=O)[C@H](CCC(=O)O)NC(=O)C(C)(C)NC(=O)[C@@H](N)Cc1c[nH]cn1)[C@@H](C)O)[C@@H](C)O)C(C)C)C(=O)N[C@@H](CCC(=O)O)C(=O)N[C@@H](Cc1c[nH]cn1)C(=O)N[C@@H](CC(C)C)C(=O)N[C@H](C(N)=O)C(C)C [compound 91] (H-H[Aib]EGTFTSDVSFLK([AEEA-AEEA-γGlu-C20 diacid])EFAASQRFLEHLV-NH2) |  | 
260000 | 1580 nM | 0.0794 nM | 20773 | 0.14 | CC(C)C[C@H](NC(=O)[C@H](Cc1ccccc1)NC(=O)[C@H](CCCNC(=N)N)NC(=O)[C@H](CCC(N)=O)NC(=O)[C@H](CO)NC(=O)[C@H](C)NC(=O)[C@H](C)NC(=O)[C@H](Cc1ccccc1)NC(=O)[C@H](CCC(=O)O)NC(=O)[C@H](CCCCNC(=O)COCCOCCNC(=O)COCCOCCNC(=O)CC[C@H](NC(=O)CCCCCCCCCCCCCCCCCCC(=O)O)C(=O)O)NC(=O)[C@H](CC(C)C)NC(=O)[C@@H](NC(=O)[C@H](CO)NC(=O)[C@@H](NC(=O)[C@H](CC(=O)O)NC(=O)[C@H](CO)NC(=O)[C@@H](NC(=O)[C@H](Cc1ccccc1)NC(=O)[C@@H](NC(=O)CNC(=O)[C@H](CCC(=O)O)NC(=O)C(C)(C)NC(=O)[C@@H](N)Cc1c[nH]cn1)[C@@H](C)O)[C@@H](C)O)C(C)C)C(C)C)C(=O)N[C@@H](CCC(=O)O)C(=O)N[C@@H](Cc1c[nH]cn1)C(=O)N[C@@H](CC(C)C)C(=O)N[C@H](C(N)=O)C(C)C [compound 92] (H-H[Aib]EGTFTSDVSVLK([AEEA-AEEA-γGlu-C20 diacid])EFAASQRFLEHLV-NH2) |  | 

From patent publication US20260201008A1, “SECRETIN-DERIVED GLP1R SELECTIVE AGONISTS” (GUBRA A/S, priority 2023, published 2026)
